Experiments:
[1] = biological target: T1, human Cystic Fibrosis Transmembrane Conductance Regulator (CFTR) harboring the ΔF508 mutation (Homo sapiens, UniProt P13569, DEL508-508); experiment: H441 cell Emax and EC50: HRP-tagged ΔF508-CFTR cell-surface luminescence assay; assay type: cell-based; details: H441 cells expressing HRP-tagged ΔF508-CFTR, 27° C. for two nights; for EC50: 15-point dose-response; for Emax: NCI-H441, % of maximum VX809 signal
T1 construct: expressed in transfected cells; host or cells: H441 carcinoma cell line (G418 selection)
T1 sequence (P13569 with tags, fused parts or gaps DEL508-508): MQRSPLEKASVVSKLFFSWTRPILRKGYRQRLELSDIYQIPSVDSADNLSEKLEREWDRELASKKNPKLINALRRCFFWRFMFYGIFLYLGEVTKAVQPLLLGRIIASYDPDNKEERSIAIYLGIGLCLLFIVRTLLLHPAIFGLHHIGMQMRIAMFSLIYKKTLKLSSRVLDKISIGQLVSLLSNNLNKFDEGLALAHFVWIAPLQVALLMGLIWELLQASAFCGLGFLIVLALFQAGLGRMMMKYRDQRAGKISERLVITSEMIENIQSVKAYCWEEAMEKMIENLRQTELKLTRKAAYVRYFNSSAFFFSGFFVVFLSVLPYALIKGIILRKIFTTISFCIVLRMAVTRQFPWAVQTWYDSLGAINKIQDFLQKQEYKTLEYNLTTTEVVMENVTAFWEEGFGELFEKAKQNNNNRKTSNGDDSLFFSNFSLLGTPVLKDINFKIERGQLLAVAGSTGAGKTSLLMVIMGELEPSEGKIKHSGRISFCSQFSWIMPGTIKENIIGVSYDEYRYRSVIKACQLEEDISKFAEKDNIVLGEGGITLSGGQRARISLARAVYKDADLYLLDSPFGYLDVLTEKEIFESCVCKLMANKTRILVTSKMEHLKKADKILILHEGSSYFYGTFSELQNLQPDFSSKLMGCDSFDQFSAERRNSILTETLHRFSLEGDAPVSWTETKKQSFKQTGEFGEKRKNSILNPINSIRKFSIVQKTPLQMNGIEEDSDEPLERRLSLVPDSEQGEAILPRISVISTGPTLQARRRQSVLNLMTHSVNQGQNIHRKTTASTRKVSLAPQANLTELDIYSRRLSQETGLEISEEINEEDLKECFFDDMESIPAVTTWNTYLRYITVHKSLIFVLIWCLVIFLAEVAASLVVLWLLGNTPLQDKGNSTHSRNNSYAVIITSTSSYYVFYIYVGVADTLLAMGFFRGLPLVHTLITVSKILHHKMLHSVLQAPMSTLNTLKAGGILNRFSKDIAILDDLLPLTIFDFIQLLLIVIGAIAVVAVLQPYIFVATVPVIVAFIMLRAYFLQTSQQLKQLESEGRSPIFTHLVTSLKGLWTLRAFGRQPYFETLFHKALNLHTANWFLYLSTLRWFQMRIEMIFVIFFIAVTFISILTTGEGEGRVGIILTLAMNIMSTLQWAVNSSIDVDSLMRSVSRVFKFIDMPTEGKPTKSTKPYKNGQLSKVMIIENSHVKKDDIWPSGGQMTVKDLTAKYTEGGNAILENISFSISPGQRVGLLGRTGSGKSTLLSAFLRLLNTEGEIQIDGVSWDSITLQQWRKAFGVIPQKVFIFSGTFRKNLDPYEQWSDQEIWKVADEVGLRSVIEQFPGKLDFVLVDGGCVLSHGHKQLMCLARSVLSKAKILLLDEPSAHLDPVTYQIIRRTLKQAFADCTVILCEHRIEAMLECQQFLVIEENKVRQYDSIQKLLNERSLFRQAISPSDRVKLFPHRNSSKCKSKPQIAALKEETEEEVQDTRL
From the text: Example 36: H441 Cell Emax and EC50
Two cell lines were used, the H441 carcinoma line and the CFHBE41o− (41o−) human bronchial epithelial line. Both cell lines expressed human Cystic Fibrosis Transmembrane Conductance Regulator (CFTR) harboring the ΔF508 mutation and with an in-frame fusion in CFTR extracellular loop 4 of Horse Radish Peroxidase (HRP) under control of the CMV promoter. In the presence of the HRP tag, ΔF508-CFTR transported to the cell surface was detectable upon addition of an HRP substrate (Luminata Forte). Both cell types were cultivated at 37° C. with CO2.
For both cell types, the medium was changed every other day unless the culture was at low % confluence. Cells were used for the assays at ˜75% confluence.
DMSO/Compound Dilutions Plate for 15-Point Dose-Response Testing
To a polypropylene (PP) 384-well plate, 15 μls DMSO was added to all wells in columns 1-22 and 24 (low Control). 15 μls of 260 μM VX809 (Lumacaftor), Selleckchem S1565, was added to column 23 wells (high Control). 15 μls of 10 mM test compound or VX809 (control) were added to wells of row A. Serial dilutions of Row A compound were performed 2×15 μls in rows A through 0 (15-point).
A PP, 384-well plate containing the appropriate cell culture medium was prepared for each assay plate with 100 μls per well. For the doxycycline-induced 41o− cells, doxycycline for both the assay plate and the medium dilution plate was added at 0.0005 mg/ml to the medium.
Both cell lines were plated for the assay at 30 μls per 384-well at 3.4×10^e5 cells per ml (˜10K cells/well). H441 cells were plated on opaque, white, Corning plate 3704. 41o− cells were plated on collagen-coated opaque, white, Corning plate 356665. For 41o− cells, doxycycline was added to the medium.
Compound Addition/Assay Incubation
Using FX (Beckman) protocol, 10 μls diluted compound or medium was added per well to the Assay Plate as: 2 μls DMSO Dilution plate well is diluted in 100 μls of the Medium Dilution Plate well, mixed, and 10 μls is transferred to the Assay Plate.
The final assay dilution series is 24.5, 12.3, 6.1, 3.1, 1.5, 0.8, 0.4, 0.2, 0.1, 0.05, 0.02, 0.01, 0.006, 0.003, 0.001 and 0 μM. The 41o− assay plates were incubated at 37° C. w/CO2, the H441 assay plates were incubated at 27° C. w/CO2, each overnight for two nights.
Assay Result Determination
After being brought to room temperature, the assay plate liquid was removed. 30 uls of Luminata Forte (Millipore ELLUF0100) was added per well and incubated at room temperature for 10 min. The plates were then read on a Topcount, protocol LumiMatti (CPS, luminescence). The data was analyzed for % of maximum, maximum VX809 signal, and EC50 using Pearl and SPEED tools.

[2] = biological target: T2, CFTR (ΔF508 homozygous CF-HBE cells) (Homo sapiens, UniProt P13569, DEL508-508); experiment: TECC24 AUC fold over DMSO @10 uM: CFTR-mediated transepithelial chloride transport in primary CF-HBE cells; assay type: cell-based; details: 10 μM test agent, 48 hours, forskolin-stimulated IEQ AUC divided by vehicle AUC
T2 construct: Primary human bronchial epithelial cells from a ΔF508 homozygous CF donor; host or cells: primary CF-HBE cells (ΔF508/ΔF508 donor)
T2 sequence (P13569 with tags, fused parts or gaps DEL508-508): as above
Experimental: Example 37: TECC24 AUC Fold Over DMSO @10 uM
The effects of a test agent on CFTR-mediated transepithelial chloride transport was measured using TECC24 recording analysis. Test agents were solubilized in DMSO. Solubilized test agents were mixed with incubation medium containing DMEM/F12, Ultroser G (2%; Crescent Chemical, catalog #67042), Hyclone Fetal Clone 11(2%; GE Healthcare, catalog #SH30066.02), bovine brain extract (0.25%; Lonza, catalog #CC-4098), insulin (2.5 μg/mL), IL-13 (10 ng/mL), hydrocortisone (20 nM), transferrin (2.5 μg/mL), triiodothyronine (500 nM), ethanolamine (250 nM), epinephrine (1.5 μM), phosphoethanolamine (250 nM), and retinoic acid (10 nM). Primary human bronchial epithelial cells from a ΔF508 homozygous CF donor (CF-HBE cells; from University of North Carolina Cystic Fibrosis Tissue Procurement Center), grown on Transwell HTS 24-well cell culture inserts (Costar, catalog #3378), were exposed to test agents or controls dissolved in incubation medium. The CF-HBE cells were cultured at 36.5° C. for 48 hours before TECC24 recordings were performed in the presence or absence of test agent, a positive control or vehicle (DMSO).
Following incubation, the transwell cell culture inserts containing the test agent or control-treated CF-HBE cells were loaded onto a TECC24 apparatus (TECC v7 or MTECC v2; EP Design) to record the transepithelial voltage (VT) and resistance (TEER) using 4 AgCl electrodes per well configured in current-clamp mode. The apical and basolateral bath solutions both contained (in mM) 140 NaCl, 5 KCl, 2 CaCl2, 1 MgCl2, 10 Hepes, and 10 glucose (adjusted to pH 7.4 with NaOH). To inhibit basal Na+ absorption, the ENaC inhibitor benzamil (10 μM) was added to the bath. Then, the adenylate cyclase activator, forskolin (10 μM), was added to the bath to activate CFTR. The forskolin-stimulated Cl— transport was halted by addition of CFTR inhibitor-172 (20 μM) to the bath at the end of the experiment to confirm specificity. VT and TEER recordings were digitally acquired at routine intervals using TECC or MTECC software (EP Design). VT and TEER were transformed into equivalent transepithelial Cl-current (IEQ), and the Area Under the Curve (AUC) of the IEQ time course between forskolin and CFTR inhibitor-172 addition is generated using Excel (Microsoft). Efficacy is expressed as the ratio of the test agent AUC divided by vehicle AUC. EC50s based on AUC are generated using the non-linear regression log(agonist) vs. response function in Prism software (GraphPad) with Hill Slope fixed=1.
If a test agent increased the AUC of the forskolin-stimulated IEQ relative to vehicle in CF-HBE cells, and this increase was inhibited by CFTR inhibitor-172, then the test agent was considered a CFTR corrector.

Compound	EC50 [1]	Emax [1]	TECC24 AUC fold over DMSO [2]
CC(C)(C)[C@H](NC(=O)c1ccc2sccc2c1OCc1ccc(OC(F)F)cc1)C(=O)O [Compound 32-8, (2S)-2-(4-((4-(difluoromethoxy)benzyl)oxy)-benzo[b]thiophene-5-carboxamido)-3,3-dimethylbutanoic acid]	4560 nM	4.1%	–
CCC(C)(C)[C@H](NC(=O)c1ccc2cc(Cl)sc2c1OCc1ccc(C(F)(F)F)cc1)C(=O)O [Compound 33-15, (2S)-2-(2-chloro-7-((4-(trifluoromethyl)benzyl)oxy)-benzo[b]thiophene-6-carboxamido)-3,3-dimethylpentanoic acid]	880 nM	200%	A (“A” refers to AUC @10 μM > 6)
CCc1cc2c(OCc3ccc(C(F)(F)F)cc3)c(C(=O)N[C@H](C(=O)O)C(C)(C)C)ccc2s1 [Compound 33-21, (2S)-2-(2-ethyl-4-((4-(trifluoromethyl)benzyl)oxy)-benzo[b]thiophene-5-carboxamido)-3,3-dimethylbutanoic acid]	337 nM	268%	A (“A” refers to AUC @10 μM > 6)
CCC(C)(C)[C@H](NC(=O)c1ccc2cc(C)sc2c1OCc1ccc(OC(F)(F)F)cc1)C(=O)O [Compound 33-18, (2S)-3,3-dimethyl-2-(2-methyl-7-((4-(trifluoromethoxy)benzyl)oxy)-benzo[b]thiophene-6-carboxamido)pentanoic acid]	1150 nM	217%	A (“A” refers to AUC @10 μM > 6)
CCc1cc2ccc(C(=O)N[C@H](C(=O)O)C(C)(C)CC)c(OCc3ccc(OC(F)(F)F)cc3)c2s1 [Compound 33-10, (2S)-2-(2-ethyl-7-((4-(trifluoromethoxy)benzyl)oxy)-benzo[b]thiophene-6-carboxamido)-3,3-dimethylpentanoic acid]	1250 nM	216%	B (“B” refers to AUC @10 μM between 4-6)
CC(C)(c1ccccc1)C(NC(=O)c1ccc2sccc2c1OCc1ccc(SC(F)(F)F)cc1)C(=O)O (centres unmarked) [Compound 32-5, 3-methyl-3-phenyl-2-(4-((4-((trifluoromethyl)thio)benzyl)oxy)-benzo[b]thiophene-5-carboxamido)butanoic acid]	496 nM	93.5%	C (“C” refers to AUC @10 μM < 4)
CCc1cc2ccc(C(=O)N[C@H](C(=O)O)C(C)(C)C)c(OCc3ccc(OC(F)(F)F)cc3)c2s1 [Compound 33-26, (2S)-2-(2-ethyl-7-((4-(trifluoromethoxy)benzyl)oxy)-benzo[b]thiophene-6-carboxamido)-3,3-dimethylbutanoic acid]	1090 nM	197%	B (“B” refers to AUC @10 μM between 4-6)
CC(C)(C)[C@H](NC(=O)c1ccc2sc(Cl)cc2c1OCc1ccc(C(F)(F)F)cc1)C(=O)O [Compound 33-5, (2S)-2-(2-chloro-4-((4-(trifluoromethyl)benzyl)oxy)-benzo[b]thiophene-5-carboxamido)-3,3-dimethylbutanoic acid]	262 nM	251%	A (“A” refers to AUC @10 μM > 6)
CC(C)(C)[C@H](NC(=O)c1ccc2sc(C(F)F)cc2c1OCc1ccc(C(F)(F)F)cc1)C(=O)O [Compound 33-3, (2S)-2-(2-(difluoromethyl)-4-((4-(trifluoromethyl)benzyl)oxy)-benzo[b]thiophene-5-carboxamido)-3,3-dimethylbutanoic acid]	884 nM	350%	A (“A” refers to AUC @10 μM > 6)
CC(C)(C)[C@H](NC(=O)c1ccc2sc(C(F)F)nc2c1OCc1ccc(C(F)(F)F)cc1)C(=O)O [Compound 35-4, (2S)-2-[[2-(difluoromethyl)-4-[[4-(trifluoromethyl)phenyl]methoxy]-1,3-benzothiazole-5-carbonyl]amino]-3,3-dimethyl-butanoic acid]	–	–	A (“A” refers to AUC @10 μM > 6)
CC(C)(C)[C@H](NC(=O)c1ccc2sc(C3CCC3)nc2c1OCc1ccc(C(F)(F)F)cc1)C(=O)O [Compound 35-9, (2S)-2-[[2-cyclobutyl-4-[[4-(trifluoromethyl)phenyl]methoxy]-1,3-benzothiazole-5-carbonyl]amino]-3,3-dimethyl-butanoic acid]	–	–	A (“A” refers to AUC @10 μM > 6)
CC(C)(C)[C@H](NC(=O)c1ccc2sc(C3(F)CC3)nc2c1OCc1ccc(C(F)(F)F)cc1)C(=O)O [Compound 35-8, (2S)-2-[[2-(1-fluorocyclopropyl)-4-[[4-(trifluoromethyl)phenyl]methoxy]-1,3-benzothiazole-5-carbonyl]amino]-3,3-dimethyl-butanoic acid]	–	–	A (“A” refers to AUC @10 μM > 6)
CC(C)(C)[C@H](NC(=O)c1ccc2sc(C3CC3)nc2c1OCc1ccc(C(F)(F)F)cc1)C(=O)O [Compound 35-5, (2S)-2-[[2-cyclopropyl-4-[[4-(trifluoromethyl)phenyl]methoxy]-1,3-benzothiazole-5-carbonyl]amino]-3,3-dimethyl-butanoic acid]	–	–	A (“A” refers to AUC @10 μM > 6)
CC(C)(C)[C@H](NC(=O)c1ccc2sc(C3CCCC3)nc2c1OCc1ccc(C(F)(F)F)cc1)C(=O)O [Compound 35-7, (2S)-2-[[2-cyclopentyl-4-[[4-(trifluoromethyl)phenyl]methoxy]-1,3-benzothiazole-5-carbonyl]amino]-3,3-dimethyl-butanoic acid]	–	–	A (“A” refers to AUC @10 μM > 6)
CCC(C)(C)[C@H](NC(=O)c1ccc2sc(C3CC3)nc2c1OCc1ccc(C(F)(F)F)cc1)C(=O)O [Compound 35-6, (2S)-2-[[2-cyclopropyl-4-[[4-(trifluoromethyl)phenyl]methoxy]-1,3-benzothiazole-5-carbonyl]amino]-3,3-dimethyl-pentanoic acid]	–	–	A (“A” refers to AUC @10 μM > 6)

Source: patent US12630521B2, “Arylamides and methods of use thereof” (Genzyme Corporation, priority 2019, dated 2026)
